Reference: patent EP4038059B1, “SUBSTITUTED CARBAZOLE COMPOUNDS” (Bristol-Myers Squibb Company, priority 2019, dated 2021)

How the values were obtained:
Format in all cases: cell-based
human TLR7 = molecular target: T1, human TLR7 (Homo sapiens, UniProt Q9NYK1); experiment: TLR7 inhibition reporter assay (HEK-Blue SEAP); settings: HEK-Blue cells overexpressing human TLR7, stimulated with gardiquimod 7.5 µM, 22 h incubation
T1 construct: host or cells: HEK-Blue cells
T1 sequence (Q9NYK1 27-1049): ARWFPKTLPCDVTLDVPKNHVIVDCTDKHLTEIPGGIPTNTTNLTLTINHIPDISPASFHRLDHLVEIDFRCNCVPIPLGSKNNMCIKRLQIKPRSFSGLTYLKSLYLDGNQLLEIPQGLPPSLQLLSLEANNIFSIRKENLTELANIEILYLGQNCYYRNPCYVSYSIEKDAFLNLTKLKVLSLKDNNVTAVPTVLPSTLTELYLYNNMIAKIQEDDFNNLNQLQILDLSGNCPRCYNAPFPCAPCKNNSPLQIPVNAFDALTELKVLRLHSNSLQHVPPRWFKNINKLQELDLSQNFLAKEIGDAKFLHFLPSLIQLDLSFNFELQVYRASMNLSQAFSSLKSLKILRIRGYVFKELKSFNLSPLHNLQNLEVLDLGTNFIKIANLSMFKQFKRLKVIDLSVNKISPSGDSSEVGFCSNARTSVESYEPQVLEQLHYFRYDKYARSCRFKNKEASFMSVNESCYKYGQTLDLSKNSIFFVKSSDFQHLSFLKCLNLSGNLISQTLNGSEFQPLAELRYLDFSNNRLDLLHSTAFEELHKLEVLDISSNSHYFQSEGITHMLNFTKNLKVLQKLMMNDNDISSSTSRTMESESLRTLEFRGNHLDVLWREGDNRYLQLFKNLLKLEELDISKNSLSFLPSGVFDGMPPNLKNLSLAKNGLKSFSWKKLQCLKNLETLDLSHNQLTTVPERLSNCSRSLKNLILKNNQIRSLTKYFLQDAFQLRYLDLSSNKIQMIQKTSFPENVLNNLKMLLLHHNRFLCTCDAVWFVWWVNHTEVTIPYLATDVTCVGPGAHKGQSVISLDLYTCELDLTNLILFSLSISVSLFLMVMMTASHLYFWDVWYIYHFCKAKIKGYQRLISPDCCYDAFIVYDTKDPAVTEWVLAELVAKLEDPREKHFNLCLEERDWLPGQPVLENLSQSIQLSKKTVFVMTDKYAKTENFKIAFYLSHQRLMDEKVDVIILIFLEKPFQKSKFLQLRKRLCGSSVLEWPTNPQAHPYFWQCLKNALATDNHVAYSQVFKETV
Method: (§1) HEK-Blue™-cells (Invivogen) overexpressing human TLR7, TLR8 or TLR9 receptors were used for screening inhibitors of these receptors using an inducible SEAP (secreted embryonic alkaline phosphatase) reporter gene under the control of the IFN-β minimal promoter fused to five NF-κB and AP-1-binding sites. Briefly, cells are seeded into Greiner 384 well plates (15000 cells per well for TLR7, 20,000 for TLR8 and 25,000 for TLR9) and then treated with test compounds in DMSO to yield a final dose response concentration range of 0.05 nM - 50 µM. After a 30 minute compound pre-treatment at room temperature, the cells are then stimulated with a TLR7 ligand (gardiquimod at a final concentration of 7.5 µM), TLR8 ligand (R848 at a final concentration of 15.9 µM) or TLR9 ligand (ODN2006 at a final concentration of 5 nM) to activate NF-κB and AP-1 which induce the production of SEAP. After a 22 h incubation at 37°C, 5% CO2, SEAP levels are determined with the addition of HEK-Blue™ Detection reagent (Invivogen), a cell culture medium that allows for detection of SEAP, according to manufacturer's specifications. The percent inhibition is determined as the % reduction in the HEK-Blue signal present in wells treated with agonist plus DMSO alone compared to wells treated with a known inhibitor.

human TLR8 = molecular target: T2, human TLR8 (Homo sapiens, UniProt Q9NR97); experiment: TLR8 inhibition reporter assay (HEK-Blue SEAP); settings: HEK-Blue cells overexpressing human TLR8, stimulated with R848 15.9 µM, 22 h incubation
T2 construct: host or cells: HEK-Blue cells
T2 sequence (Q9NR97 27-1041): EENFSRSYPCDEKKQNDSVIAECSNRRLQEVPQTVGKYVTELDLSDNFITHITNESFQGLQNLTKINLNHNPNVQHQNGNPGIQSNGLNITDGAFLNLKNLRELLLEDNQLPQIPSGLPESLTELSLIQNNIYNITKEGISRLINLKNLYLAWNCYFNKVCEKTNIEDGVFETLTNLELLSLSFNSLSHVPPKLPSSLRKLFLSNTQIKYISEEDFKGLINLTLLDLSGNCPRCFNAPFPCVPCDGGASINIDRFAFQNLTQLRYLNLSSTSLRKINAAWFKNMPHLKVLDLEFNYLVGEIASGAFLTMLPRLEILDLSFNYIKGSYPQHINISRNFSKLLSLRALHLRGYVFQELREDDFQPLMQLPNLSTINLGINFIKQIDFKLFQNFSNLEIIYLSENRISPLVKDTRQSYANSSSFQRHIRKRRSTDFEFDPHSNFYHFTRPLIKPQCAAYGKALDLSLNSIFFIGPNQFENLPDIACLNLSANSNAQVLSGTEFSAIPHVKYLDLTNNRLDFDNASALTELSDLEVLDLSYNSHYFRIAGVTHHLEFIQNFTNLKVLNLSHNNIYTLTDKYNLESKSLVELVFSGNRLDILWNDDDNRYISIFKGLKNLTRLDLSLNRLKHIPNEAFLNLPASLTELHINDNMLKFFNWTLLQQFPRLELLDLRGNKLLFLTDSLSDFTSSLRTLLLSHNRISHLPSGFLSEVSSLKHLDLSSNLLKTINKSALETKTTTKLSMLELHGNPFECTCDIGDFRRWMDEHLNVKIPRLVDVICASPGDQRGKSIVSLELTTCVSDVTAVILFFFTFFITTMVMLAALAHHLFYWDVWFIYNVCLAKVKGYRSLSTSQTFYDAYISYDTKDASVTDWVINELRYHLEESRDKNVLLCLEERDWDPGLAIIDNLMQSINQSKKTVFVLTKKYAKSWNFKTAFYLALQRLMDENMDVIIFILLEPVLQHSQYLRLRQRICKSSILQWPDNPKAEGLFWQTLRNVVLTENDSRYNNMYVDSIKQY
Method: as §1

human TLR9 = molecular target: T3, human TLR9 (Homo sapiens, UniProt Q9NR96); experiment: TLR9 inhibition reporter assay (HEK-Blue SEAP); settings: HEK-Blue cells overexpressing human TLR9, stimulated with ODN2006 5 nM, 22 h incubation
T3 construct: host or cells: HEK-Blue cells
T3 sequence (Q9NR96 26-1032): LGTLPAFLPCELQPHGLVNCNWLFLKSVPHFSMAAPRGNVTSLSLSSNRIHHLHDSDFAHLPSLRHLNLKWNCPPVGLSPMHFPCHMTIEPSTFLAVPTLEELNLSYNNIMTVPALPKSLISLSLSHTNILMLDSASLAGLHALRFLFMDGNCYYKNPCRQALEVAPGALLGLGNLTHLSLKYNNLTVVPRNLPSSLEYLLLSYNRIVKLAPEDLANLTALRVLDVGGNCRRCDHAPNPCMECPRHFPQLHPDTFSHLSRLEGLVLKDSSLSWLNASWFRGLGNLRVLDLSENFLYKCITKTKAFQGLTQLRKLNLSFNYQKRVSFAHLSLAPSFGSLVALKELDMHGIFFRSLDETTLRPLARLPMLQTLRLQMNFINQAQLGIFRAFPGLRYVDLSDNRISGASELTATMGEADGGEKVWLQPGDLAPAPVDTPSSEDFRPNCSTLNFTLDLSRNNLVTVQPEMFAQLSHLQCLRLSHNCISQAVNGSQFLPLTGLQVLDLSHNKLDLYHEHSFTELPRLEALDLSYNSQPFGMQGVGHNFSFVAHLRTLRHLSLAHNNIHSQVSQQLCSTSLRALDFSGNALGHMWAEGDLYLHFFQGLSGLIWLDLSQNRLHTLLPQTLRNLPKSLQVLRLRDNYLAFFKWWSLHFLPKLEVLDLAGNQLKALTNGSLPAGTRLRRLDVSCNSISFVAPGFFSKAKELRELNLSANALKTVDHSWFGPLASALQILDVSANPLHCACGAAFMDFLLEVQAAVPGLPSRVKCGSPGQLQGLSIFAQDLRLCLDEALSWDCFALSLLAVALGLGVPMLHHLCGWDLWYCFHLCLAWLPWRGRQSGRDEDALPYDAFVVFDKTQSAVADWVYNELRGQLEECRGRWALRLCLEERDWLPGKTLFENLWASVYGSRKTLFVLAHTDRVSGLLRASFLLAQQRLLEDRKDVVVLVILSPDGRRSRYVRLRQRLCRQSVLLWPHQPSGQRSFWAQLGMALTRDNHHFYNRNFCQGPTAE
Method: as §1

SMILES	IC50 (human TLR7) [µM]	IC50 (human TLR8) [µM]	IC50 (human TLR9) [µM]
c1cc(-c2ccc3c(c2)[nH]c2ccc(C4CCNCC4)cc23)ccn1 [Example 9, 6-(Piperidin-4-yl)-2-(pyridin-4-yl)-9H-carbazole]	0.383	0.061	0.302
COc1cc(-c2cc3[nH]c4ccc(C5CCCN(C(=O)CN(C)C)C5)cc4c3c(C)c2C)cn2ncnc12 (centres unmarked) [Example 27, 2-(dimethylamino)-1-(3-(7-(8-methoxy-[1,2,4]triazolo[1,5-a]pyridin-6-yl)-5,6-dimethyl-9H-carbazol-3-yl)piperidin-1-yl)ethan-1-one]	0.0033	0.0038	1.17
COc1cc(-c2cc3[nH]c4ccc(C5CCN(CC(C)(C)O)CC5)cc4c3cc2C)cn2ncnc12 [Example 23]	0.0041	0.0009	0.259
COc1cc(-c2cc3[nH]c4ccc(C5CCCN(C6COC6)C5)cc4c3c(C)c2C)cn2ncnc12 (centres unmarked) [Example 33]	0.0155	0.0022	1.23
COc1cc(-c2cc(C)c3c(c2)[nH]c2ccc(C4CCN(CC(C)(C)O)CC4)cc23)cn2ncnc12 [Example 20]	0.0019	0.0021	0.224
Cc1cc(-c2ccc3c(c2)[nH]c2ccc(C4CCNCC4)cc23)cc(C)n1 [Example 2, 2-(2,6-Dimethylpyridin-4-yl)-6-(piperidin-4-yl)-9H-carbazole]	0.022	0.103	0.053
CC(=O)Nc1ccc2c(c1)[nH]c1ccc(C3CCNCC3)cc12 [Example 7, N-(6-(piperidin-4-yl)-9H-carbazol-2-yl)acetamide]	> 3.13	> 3.13	1.06
COc1cc(-c2cc3[nH]c4ccc(C5CCNCC5)cc4c3c(C)c2C)cn2ncnc12 [Example 15, 2-(8-Methoxy-[1,2,4]triazolo[1,5-a]pyridin-6-yl)-3,4-dimethyl-6-(piperidin-4-yl)-9H-carbazole]	0.0008	0.0008	0.095
Cc1cc(-c2cc(C)c3ncnn3c2)cc2[nH]c3ccc(C4CCN(CC(C)(C)O)CC4)cc3c12 [Example 19]	0.0018	0.004	0.416

Further compounds by falling IC50 (human TLR8), results first:

IC50 (human TLR7) [µM]	IC50 (human TLR8) [µM]	IC50 (human TLR9) [µM]	SMILES
0.651	0.209	1.06	Cc1noc(C)c1-c1ccc2c(c1)[nH]c1ccc(C3CCNCC3)cc12 [Example 1, 3,5-dimethyl-4-(6-(piperidin-4-yl)-9H-carbazol-2-yl)isoxazole]
0.0024	0.021	0.04	Cc1cc(-c2cc(C)c3c(c2)[nH]c2ccc(C4CCNCC4)cc23)cc(C)n1 [Example 11]
–	0.0013	1.05	COc1cc(-c2cc3[nH]c4ccc(C5CN(C6CCOCC6)C5)cc4c3c(C)c2C)cn2ncnc12 [Example 37]
0.0055	0.001	0.813	COc1cc(-c2cc3[nH]c4ccc(C5CN(CCS(C)(=O)=O)C5)cc4c3c(C)c2C)cn2ncnc12 [Example 30, 2-(8-methoxy-[1,2,4]triazolo[1,5-a]pyridin-6-yl)-3,4-dimethyl-6-(1-(2-(methylsulfonyl)ethyl)azetidin-3-yl)-9H-carbazole]
0.0032	0.0009	0.65	Cc1c(-c2cc(C)c3c(c2)[nH]c2ccc(C4CCN(CC(C)(C)O)CC4)cc23)cn(C)c(=O)c1C [Example 18, 5-(6-(1-(2-Hydroxy-2-methylpropyl)piperidin-4-yl)-4-methyl-9H-carbazol-2-yl)-1,3,4-trimethylpyridin-2(1H)-one]
0.0016	0.0007	0.342	Cc1cc2c(cc1-c1cc(C)c3ncnn3c1)[nH]c1ccc(C3CCN(CC(C)(C)O)CC3)cc12 [Example 22]
0.0025	0.0004	0.514	COc1cc(-c2cc3[nH]c4ccc(C5CN(CC(C)(C)O)C5)cc4c3c(C)c2C)cn2ncnc12 [Example 38]
